Data from US6843979B2, “4-haloethenylphenyl tropane:serotonin transporter imaging agents” (Emory University, priority 1999, dated 2005).
“And” between values parts separate entries of the source, which are not always exact repeats. Equal entries are not always repeated.

Columns and labels:
[1] = target: dopamine transporter (DAT) (Rattus norvegicus, UniProt P23977); details: vs [3H]WIN 35428; cited from earlier work
SERT [2] = details: cited from earlier work
SERT [3] = target: T1, SERT (Rattus norvegicus, UniProt P31652); experiment: Ex vivo autoradiographic study in rats; design: species or system Sprague Dawley rat
T1 construct: from tissue; host or cells: brain and other tissues of living male Sprague Dawley rats
Procedure: An initial ex vivo autoradiographic study was performed with either [^18F]FEINT or [^18F]FEBrNT in rats to measure brain penetration and regional distribution. A male Sprague Dawley rat was injected with one mCi of no-carrier added either […].

SERT [4] = target: T2, SERT (Macaca mulatta, UniProt Q9MYX0); experiment: PET imaging and fluvoxamine displacement in rhesus monkey; assay type: in vivo; details: anesthetized rhesus monkey; thalamus, hypothalamus, pons / midbrain, brain stem
T2 construct: from tissue; host or cells: brain of a living rhesus monkey
Procedure: FIG. 3 is a graph showing time activity curves of [^18F]FEBrNT in a rhesus monkey in the thalamus (∘), hypothalamus (Δ), pons (⋄) and cerebellum (x) at 0-120 min i.v. post injection.

SERT [5] = target: T1, SERT; experiment: Tissue uptake of [18F]FEINT in rats; assay type: in vivo, Sprague Dawley rat; details: for Clearance from the hypothalamus: rat
Procedure: The in vivo regional brain tissue distribution of [^18F]FEBrNT (Table 2) and [^18F]FEINT Tables 3 and 4) were compared with a preliminary study in rats. […] The hypothalamus to cerebellum ratios for [^18F]FEBrNT were 5.7 at 60 min post injection in comparison to 4.8 for [^18F]FEINT. […] The regional distribution of [^18F]FEBrNT and [^18F]FEINT were next studied in the brain of rhesus monkeys.

SERT sites = experiment: In vitro autoradiography, coronal brain slices; assay type: binding, pig tailed macaque
Procedure: [^18F]FEINT and [^18F]FEBrNT were incubated with pig tailed macaque coronal brain slices and the slices exposed to film for 30 min. […] Incubation of the brain slices with [^18F]FEINT (FIG. 1) and [^18F]FEBrNT and 10 μM citalopram yielded maximal inhibition (90%) of binding.
The radiosynthesis for [^18F] 10a, [^18F]12a, and [^18F]12b employed the tosylates 9a and 13a,b as the substrates respectively. The tosylate 9a was treated with NCA K[^18F]/K222 for 10 min in 1 mL of CH3CN at 85° C. followed by TFA/CH2Cl2 at 27° C. […] [^18F]FEBrNT and [^18F]FEClNT were synthesized from the tosylates 13a and 13b in a similar manner. [^18F]FEINT and [18F]FEBrNT were incubated with pig tailed macaque coronal brain slices.

[6] = Table 3, rat, 60 min after i.v., Fluvoxamine
[7] = Table 3, rat, 60 min after i.v., No block
[8] = Table 4, rat, 30 min after i.v.
[9] = Table 4, rat, 60 min after i.v.
[10] = Table 4, rat, 120 min after i.v.

T1 sequence (P31652 whole entry): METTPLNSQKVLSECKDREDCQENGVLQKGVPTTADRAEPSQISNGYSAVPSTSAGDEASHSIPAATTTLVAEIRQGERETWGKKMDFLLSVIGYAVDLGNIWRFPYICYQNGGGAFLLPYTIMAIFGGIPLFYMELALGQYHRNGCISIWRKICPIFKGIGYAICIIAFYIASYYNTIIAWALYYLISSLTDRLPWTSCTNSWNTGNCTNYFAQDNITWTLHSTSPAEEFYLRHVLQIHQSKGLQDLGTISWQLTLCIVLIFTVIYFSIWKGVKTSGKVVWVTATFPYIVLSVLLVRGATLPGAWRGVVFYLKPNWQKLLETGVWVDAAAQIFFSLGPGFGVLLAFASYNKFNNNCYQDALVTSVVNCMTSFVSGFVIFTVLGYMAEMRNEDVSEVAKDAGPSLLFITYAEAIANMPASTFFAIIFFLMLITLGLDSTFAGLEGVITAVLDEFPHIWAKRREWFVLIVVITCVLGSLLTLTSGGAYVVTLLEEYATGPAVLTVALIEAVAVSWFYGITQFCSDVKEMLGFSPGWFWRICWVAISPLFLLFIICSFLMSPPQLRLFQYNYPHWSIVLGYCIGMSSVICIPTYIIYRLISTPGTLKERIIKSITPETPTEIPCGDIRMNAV
Chain of dopamine transporter (DAT) (P23977 whole entry): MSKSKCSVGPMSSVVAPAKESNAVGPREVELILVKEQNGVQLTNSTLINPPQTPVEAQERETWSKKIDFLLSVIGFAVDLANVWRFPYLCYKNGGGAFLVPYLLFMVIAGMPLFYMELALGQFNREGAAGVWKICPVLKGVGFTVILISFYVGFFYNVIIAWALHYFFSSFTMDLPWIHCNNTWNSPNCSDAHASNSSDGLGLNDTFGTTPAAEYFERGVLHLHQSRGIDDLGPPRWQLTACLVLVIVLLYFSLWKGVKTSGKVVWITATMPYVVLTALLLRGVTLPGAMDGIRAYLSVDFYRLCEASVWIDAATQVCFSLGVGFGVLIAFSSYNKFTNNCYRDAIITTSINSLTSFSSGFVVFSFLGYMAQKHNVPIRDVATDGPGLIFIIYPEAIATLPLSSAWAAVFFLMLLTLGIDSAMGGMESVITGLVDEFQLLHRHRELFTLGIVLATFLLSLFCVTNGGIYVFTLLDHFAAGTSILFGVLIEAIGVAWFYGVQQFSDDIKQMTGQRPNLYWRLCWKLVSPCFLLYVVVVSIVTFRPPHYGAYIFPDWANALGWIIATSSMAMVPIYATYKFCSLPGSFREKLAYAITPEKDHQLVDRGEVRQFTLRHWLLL
T2 sequence (Q9MYX0 whole entry): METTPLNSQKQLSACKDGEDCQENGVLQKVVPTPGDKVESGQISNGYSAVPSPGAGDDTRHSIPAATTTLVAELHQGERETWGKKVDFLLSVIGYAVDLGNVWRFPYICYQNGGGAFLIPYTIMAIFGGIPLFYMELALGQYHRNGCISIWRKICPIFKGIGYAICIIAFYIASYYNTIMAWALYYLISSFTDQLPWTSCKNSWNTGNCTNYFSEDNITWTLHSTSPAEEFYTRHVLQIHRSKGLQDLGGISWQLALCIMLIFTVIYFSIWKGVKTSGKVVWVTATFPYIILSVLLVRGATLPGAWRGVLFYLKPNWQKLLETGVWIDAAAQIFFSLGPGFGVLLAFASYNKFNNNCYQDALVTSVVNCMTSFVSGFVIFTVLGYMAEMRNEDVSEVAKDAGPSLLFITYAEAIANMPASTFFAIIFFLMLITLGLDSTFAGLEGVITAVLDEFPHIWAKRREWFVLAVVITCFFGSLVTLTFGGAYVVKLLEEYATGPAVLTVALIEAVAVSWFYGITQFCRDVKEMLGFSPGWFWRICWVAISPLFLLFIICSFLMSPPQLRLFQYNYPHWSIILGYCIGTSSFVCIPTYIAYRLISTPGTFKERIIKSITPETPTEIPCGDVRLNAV

Structure (SMILES): CC=Cc1ccc(C2CC3CCC(N3)C2C(=O)OC)cc1 (stereo not drawn) [Nor-β-CCPPT, 2β-carbomethoxy-3β-(4′cis-propenylphenyl)notropane]
- IC50 [1]: 32 nM
- Selectivity for the SERT over the DAT (SERT [2]): 28 times
- IC50 (SERT [2]; vs [3H]paroxetine): 1.15 nM

Structure (SMILES): COC(=O)C1C2CCC(CC1c1ccc(CC[18F])c(I)c1)N2 (centres unmarked) [[^18F]FEINT]
- Localization of tracer binding, ex vivo autoradiography (SERT [3]; 1 mCi tracer): localized to the thalamus, hypothalamus, caudate, putamen and amygloid complex
- Effect of fluvoxamine block on tracer binding (SERT [3]; fluvoxamine 5 mg/kg 20 min prior to tracer): maximal inhibition of binding
- Regional brain uptake by PET (SERT [4]): no visible uptake
- Hypothal/(CB) ratio (SERT [5]; [6]): 3.8
- Striatum/(CB) ratio (SERT [5]; [6]): 2.0
- Tissue uptake, Blood (SERT [5]; [6]): 0.07 (0.06-0.08) % dose/g
- Tissue uptake, Cerebellum (SERT [5]; [6]): 0.1 (0.09-0.12) % dose/g
- Tissue uptake, Cortex (SERT [5]; [6]): 0.15 (0.15-0.73) % dose/g
- Tissue uptake, Hypothalamus (SERT [5]; [6]): 0.38 (0.28-0.45) % dose/g
- Tissue uptake, Olf. T. (SERT [5]; [6]): 0.04 (0.19-0.55) % dose/g
- Tissue uptake, Prefrontal Cortex (SERT [5]; [6]): 0.18 (0.06-0.41) % dose/g
- Tissue uptake, Striatum (SERT [5]; [6]): 0.2 (0.16-1.40) % dose/g
- Hypothal/(CB) ratio (SERT [5]; [7]): 4.8 and 4.6
- Striatum/(CB) ratio (SERT [5]; [7]): 2.3
- Tissue uptake, Blood (SERT [5]; [7]): 0.09 (0.09-0.99) % dose/g
- Tissue uptake, Cerebellum (SERT [5]; [7]): 0.11 (0.11-0.12) % dose/g
- Tissue uptake, Cortex (SERT [5]; [7]): 0.18 (0.15-0.19) % dose/g
- Tissue uptake, Hypothalamus (SERT [5]; [7]): 0.5 (0.32-0.77) % dose/g
- Tissue uptake, Olf. T. (SERT [5]; [7]): 1.46 (1.24-1.65) % dose/g
- Tissue uptake, Prefrontal Cortex (SERT [5]; [7]): 0.25 (0.21-0.29) % dose/g
- Tissue uptake, Striatum (SERT [5]; [7]): 0.25 (0.21-0.29) % dose/g
- Hypothal/(CB) ratio (SERT [5]; Table 4, rat, 5 min after i.v.): 1.67
- Striatum/(CB) ratio (SERT [5]; Table 4, rat, 5 min after i.v.): 1.45
- Tissue uptake, Blood (SERT [5]; Table 4, rat, 5 min after i.v.): 0.19 (0.15-0.23)
- Tissue uptake, Bone (SERT [5]; Table 4, rat, 5 min after i.v.): 0.27 (0.23-0.31)
- Tissue uptake, Brain (SERT [5]; Table 4, rat, 5 min after i.v.): 0.65 (0.56-0.75)
- Tissue uptake, Cerebellum (SERT [5]; Table 4, rat, 5 min after i.v.): 0.58 (0.51-0.65)
- Tissue uptake, Cortex (SERT [5]; Table 4, rat, 5 min after i.v.): 0.76 (0.64-0.96)
- Tissue uptake, Hypothalamus (SERT [5]; Table 4, rat, 5 min after i.v.): 0.97 (0.58-1.59)
- Tissue uptake, Pre-frontal Cortex (SERT [5]; Table 4, rat, 5 min after i.v.): 0.75 (0.54-0.87)
- Tissue uptake, Striatum (SERT [5]; Table 4, rat, 5 min after i.v.): 0.84 (0.59-1.20)
- Hypothal/(CB) ratio (SERT [5]; [8]): 2.87
- Striatum/(CB) ratio (SERT [5]; [8]): 1.70
- Tissue uptake, Blood (SERT [5]; [8]): 0.14 (0.13-0.15)
- Tissue uptake, Bone (SERT [5]; [8]): 0.70 (0.36-0.92)
- Tissue uptake, Brain (SERT [5]; [8]): 0.35 (0.32-0.40)
- Tissue uptake, Cerebellum (SERT [5]; [8]): 0.23 (0.22-0.23)
- Tissue uptake, Cortex (SERT [5]; [8]): 0.36 (0.34-0.40)
- Tissue uptake, Hypothalamus (SERT [5]; [8]): 0.66 (0.51-0.89)
- Tissue uptake, Pre-frontal Cortex (SERT [5]; [8]): 0.37 (0.33-0.42)
- Tissue uptake, Striatum (SERT [5]; [8]): 0.39 (0.29-0.55)
- Hypothal/(CB) ratio (SERT [5]; [9]): 2.67
- Striatum/(CB) ratio (SERT [5]; [9]): 2.44
- Tissue uptake, Blood (SERT [5]; [9]): 0.10 (0.08-0.11)
- Tissue uptake, Bone (SERT [5]; [9]): 0.95 (0.53-1.17)
- Tissue uptake, Brain (SERT [5]; [9]): 0.14 (0.12-0.18)
- Tissue uptake, Cerebellum (SERT [5]; [9]): 0.09 (0.07-0.11)
- Tissue uptake, Cortex (SERT [5]; [9]): 0.13 (0.10-0.17)
- Tissue uptake, Hypothalamus (SERT [5]; [9]): 0.24 (0.18-0.30)
- Tissue uptake, Pre-frontal Cortex (SERT [5]; [9]): 0.14 (0.11-0.19)
- Tissue uptake, Striatum (SERT [5]; [9]): 0.22 (0.17-0.31)
- Hypothal/(CB) ratio (SERT [5]; [10]): 2.8 and 2.83
- Striatum/(CB) ratio (SERT [5]; [10]): 1.7 and 1.67
- Tissue uptake, Blood (SERT [5]; [10]): 0.63 (0.58-0.68)
- Tissue uptake, Bone (SERT [5]; [10]): 1.26 (0.94-1.67)
- Tissue uptake, Brain (SERT [5]; [10]): 0.89 (0.08-0.11)
- Tissue uptake, Cerebellum (SERT [5]; [10]): 0.06 (0.05-0.08)
- Tissue uptake, Cortex (SERT [5]; [10]): 0.09 (0.08-0.11)
- Tissue uptake, Hypothalamus (SERT [5]; [10]): 0.17 (0.26-0.17)
- Tissue uptake, Pre-frontal Cortex (SERT [5]; [10]): 0.10 (0.09-0.11)
- Tissue uptake, Striatum (SERT [5]; [10]): 0.10 (0.09-0.13)
- Clearance from the hypothalamus (SERT [5]; at 60 min compared to 5 min post injection): 75%
- Clearance from the hypothalamus (SERT [5]; at 120 min compared to 5 min post injection): 85%
- Localization of tracer binding in brain slices (SERT sites; slices exposed to film 30 min): localized to the thalamus, hypothalamus, caudate, amygloid complex, putamen and temporal cortex
- Inhibition of tracer binding to brain slices (SERT sites; with 10 μM citalopram): 90%
